# Values of other authors as cited in US20230301919A1, “FREEZE DRIED LOW HYGROSCOPICITY ACTIVE POWDER COMPOSITIONS” (PHILIP MORRIS PRODUCTS S.A., priority 2020, published 2023).
# Conditions: at 25° C.
smiles,measurement,value
OC[C@H]1O[C@H](O[C@H]2O[C@H](CO)[C@@H](O)[C@H](O)[C@H]2O)[C@H](O)[C@@H](O)[C@@H]1O [trehalose],solubility,69 g/100 ml water
